Reference: US8669249B2, “Poly (ADP-ribose) polymerase (PARP) inhibitors” (Takeda Pharmaceutical Company Limited, priority 2009, dated 2014)

What follows are molecules tested against T1, catalytic domain of Human PARP (Homo sapiens, UniProt P09874) (assay: Biacore surface plasmon resonance affinity assay). Conditions: pKD=-log10 KD, KD in mol/L; Biacore T100, 25° C.; read-out: pKD (converted).
T1 construct: The catalytic domain of Human PARP was cloned and prepared; made in house
Assay type: binding
Outline: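 Human PARP catalytic domain amine-coupled to CM5 chip; compounds run as 2-fold series in HBS-P with 1% DMSO, 0.5 mM TCEP, 5 mM MgCl2.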

T1 sequence (P09874 788-1014 limits assumed): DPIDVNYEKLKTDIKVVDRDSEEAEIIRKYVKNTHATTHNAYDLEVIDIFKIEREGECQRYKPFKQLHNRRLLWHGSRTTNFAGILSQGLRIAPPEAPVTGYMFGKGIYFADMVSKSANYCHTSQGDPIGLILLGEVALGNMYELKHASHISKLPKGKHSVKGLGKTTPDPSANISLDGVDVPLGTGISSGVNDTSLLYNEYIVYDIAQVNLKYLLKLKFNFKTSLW

Compound | Kd [µM]
C=CCNC(=O)CN1CCN(Cc2ccc3c(c2)NC(=O)C(C)O3)CC1 (stereo not drawn) [Compound 174, N-Allyl-2-(4-((2-methyl-3-oxo-3,4-dihydro-2H-benzo[b][1,4]oxazin-6-yl)methyl)piperazin-1-yl)acetamide] | 1.26 to 10
CCCNC(=O)CN1CCN(Cc2ccc3c(c2)NC(=O)C(C)O3)CC1 (stereo not drawn) [Compound 175, 2-(4-((2-Methyl-3-oxo-3,4-dihydro-2H-benzo[b][1,4]oxazin-6-yl)methyl)piperazin-1-yl)-N-propylacetamide] | > 10
CC1Oc2ccc(CN3CCN(CC(=O)NC4CC4)CC3)cc2NC1=O (stereo not drawn) [Compound 176, N-Cyclopropyl-2-(4-((2-methyl-3-oxo-3,4-dihydro-2H-benzo[b][1,4]oxazin-6-yl)methyl)piperazin-1-yl)acetamide] | > 10
COCCNC(=O)CN1CCN(Cc2ccc3c(c2)NC(=O)C(C)O3)CC1 (stereo not drawn) [Compound 177, N-(2-Methoxyethyl)-2-(4-((2-methyl-3-oxo-3,4-dihydro-2H-benzo[b][1,4]oxazin-6-yl)methyl)piperazin-1-yl)acetamide] | > 10
CCNC(=O)CN1CCN(Cc2ccc3c(c2)NC(=O)C(C)O3)CC1 (stereo not drawn) [Compound 178, N-Ethyl-2-(4-((2-methyl-3-oxo-3,4-dihydro-2H-benzo[b][1,4]oxazin-6-yl)methyl)piperazin-1-yl)acetamide] | > 10
CC(C)NC(=O)CN1CCN(Cc2ccc3c(c2)NC(=O)C(C)O3)CC1 (stereo not drawn) [Compound 179, N-Isopropyl-2-(4-((2-methyl-3-oxo-3,4-dihydro-2H-benzo[b][1,4]oxazin-6-yl)methyl)piperazin-1-yl)acetamide] | > 10
CC1Oc2ccc(CN3CCN(CC(=O)NCC4CC4)CC3)cc2NC1=O (stereo not drawn) [Compound 180, N-(Cyclopropylmethyl)-2-(4-((2-methyl-3-oxo-3,4-dihydro-2H-benzo[b][1,4]oxazin-6-yl)methyl)piperazin-1-yl)acetamide] | > 10
CC1Oc2ccc(CN3CCN(CC(=O)NS(C)(=O)=O)CC3)cc2NC1=O (stereo not drawn) [Compound 181, 2-(4-((2-Methyl-3-oxo-3,4-dihydro-2H-benzo[b][1,4]oxazin-6-yl)methyl)piperazin-1-yl)-N-(methylsulfonyl)acetamide] | > 10
CNC(=O)CC1CCN(Cc2ccc3c(c2)NC(=O)C(C)O3)CC1 (stereo not drawn) [Compound 182, N-Methyl-2-(1-((2-methyl-3-oxo-3,4-dihydro-2H-benzo[b][1,4]oxazin-6-yl)methyl)piperidin-4-yl)acetamide] | 12.6 to 79.4
CC1Oc2ccc(CCCO)cc2NC1=O (stereo not drawn) [Compound 188, 6-(3-Hydroxypropyl)-2-methyl-2H-benzo[b][1,4]oxazin-3(4H)-one] | > 10
CNC(=O)OCCCc1ccc2c(c1)NC(=O)C(C)O2 (stereo not drawn) [Compound 189, 3-(2-Methyl-3-oxo-3,4-dihydro-2H-benzo[b][1,4]oxazin-6-yl)propyl methylcarbamate] | > 10
CCC1Oc2ccc(CN3CC=C(c4ccc(Cl)cc4)CC3)cc2NC1=O (stereo not drawn) [Compound 193, 6-((4-(4-Chlorophenyl)-5,6-dihydropyridin-1(2H)-yl)methyl)-2-ethyl-2H-benzo[b][1,4]oxazin-3(4H)-one] | ≥ 100
CCC1Oc2ccc(CN3CCN(c4ccncc4)CC3)cc2NC1=O (stereo not drawn) [Compound 195, 2-Ethyl-6-((4-(pyridin-4-yl)piperazin-1-yl)methyl)-2H-benzo[b][1,4]oxazin-3(4H)-one] | ≥ 100
CC1Oc2cc(CN3CC=C(c4ccc(Cl)cc4)CC3)ccc2NC1=O (stereo not drawn) [Compound 199, 7-((4-(4-Chlorophenyl)-5,6-dihydropyridin-1(2H)-yl)methyl)-2-methyl-2H-benzo[b][1,4]oxazin-3(4H)-one] | ≥ 100
CC1Oc2cc(CN3CC=C(c4ccc(F)cc4)CC3)ccc2NC1=O (stereo not drawn) [Compound 201, 7-((4-(4-Fluorophenyl)-5,6-dihydropyridin-1(2H)-yl)methyl)-2-methyl-2H-benzo[b][1,4]oxazin-3(4H)-one] | ≥ 100
CC1Oc2ccc(CN3Cc4ccc(F)cc4C3)cc2NC1=O (stereo not drawn) [Compound 241, 6-((5-Fluoroisoindolin-2-yl)methyl)-2-methyl-2H-benzo[b][1,4]oxazin-3(4H)-one] | ≤ 0.01
CC(=O)Nc1ccc2c(c1)CN(Cc1ccc3c(c1)NC(=O)C(C)O3)C2 (stereo not drawn) [Compound 242, N-(2-((2-Methyl-3-oxo-3,4-dihydro-2H-benzo[b][1,4]oxazin-6-yl)methyl)isoindolin-5-yl)acetamide] | 1.26 to 10

Now from value to molecule:

Kd [µM] | Compound
≥ 100 | CCC1Oc2ccc(CN3CCC(c4ccc(Cl)cc4)CC3)cc2NC1=O (stereo not drawn) [Compound 194, 6-((4-(4-Chlorophenyl)piperidin-1-yl)methyl)-2-ethyl-2H-benzo[b][1,4]oxazin-3(4H)-one]
≥ 100 | CCC1Oc2ccc(CN3CCC(c4nc5ccccc5[nH]4)CC3)cc2NC1=O (stereo not drawn) [Compound 196, 6-((4-(1H-Benzo[d]imidazol-2-yl)piperidin-1-yl)methyl)-2-ethyl-2H-benzo[b][1,4]oxazin-3(4H)-one]
12.6 to 79.4 | CCC1Oc2ccc(CN3CCC(c4ccccc4N)CC3)cc2NC1=O (stereo not drawn) [Compound 198, 6-((4-(2-Aminophenyl)piperidin-1-yl)methyl)-2-ethyl-2H-benzo[b][1,4]oxazin-3(4H)-one]
12.6 to 79.4 | CC1Oc2cc(CN3CCC(c4ccc(Cl)cc4)CC3)ccc2NC1=O (stereo not drawn) [Compound 200, 7-((4-(4-Chlorophenyl)piperidin-1-yl)methyl)-2-methyl-2H-benzo[b][1,4]oxazin-3(4H)-one]
≥ 100 | CC1Oc2cc(CN3CCN(c4ccncc4)CC3)ccc2NC1=O (stereo not drawn) [Compound 202, 2-Methyl-7-((4-(pyridin-4-yl)piperazin-1-yl)methyl)-2H-benzo[b][1,4]oxazin-3(4H)-one]
≥ 100 | CC1Oc2cc(CN3CCC(c4nc5ccccc5[nH]4)CC3)ccc2NC1=O (stereo not drawn) [Compound 203, 7-((4-(1H-Benzo[d]imidazol-2-yl)piperidin-1-yl)methyl)-2-methyl-2H-benzo[b][1,4]oxazin-3(4H)-one]
12.6 to 79.4 | CC1Oc2cc(CN3CCC(c4ccccc4N)CC3)ccc2NC1=O (stereo not drawn) [Compound 204, 7-((4-(2-aminophenyl)piperidin-1-yl)methyl)-2-methyl-2H-benzo[b][1,4]oxazin-3(4H)-one]
12.6 to 79.4 | CC1Oc2cc(CN3CCN(c4ccccc4O)CC3)ccc2NC1=O (stereo not drawn) [Compound 209, 7-((4-(2-Hydroxyphenyl)piperazin-1-yl)methyl)-2-methyl-2H-benzo[b][1,4]oxazin-3(4H)-one]
12.6 to 79.4 | CC1Oc2cc(CN3CCC(c4ccc(C(=O)O)cc4)CC3)ccc2NC1=O (stereo not drawn) [Compound 210, 4-(1-((2-Methyl-3-oxo-3,4-dihydro-2H-benzo[b][1,4]oxazin-7-yl)methyl)piperidin-4-yl)benzoic acid]
≥ 100 | CC1Oc2ccc(CN3CCC(c4ccccc4N)CC3)cc2NC1=O (stereo not drawn) [Compound 211, 6-((4-(2-Aminophenyl)piperidin-1-yl)methyl)-2-methyl-2H-benzo[b][1,4]oxazin-3(4H)-one]
≥ 100 | COC(=O)c1cccc(C2CCN(Cc3ccc4c(c3)NC(=O)C(C)O4)CC2)c1 (stereo not drawn) [Compound 212, Methyl 3-(1-((2-methyl-3-oxo-3,4-dihydro-2H-benzo[b][1,4]oxazin-6-yl)methyl)piperidin-4-yl)benzoate]
≥ 100 | CC1Oc2ccc(CN3CCC(c4cccc(C(=O)O)c4)CC3)cc2NC1=O (stereo not drawn) [Compound 215, 3-(1-((2-Methyl-3-oxo-3,4-dihydro-2H-benzo[b][1,4]oxazin-6-yl)methyl)piperidin-4-yl)benzoic acid]
1.26 to 10 | CC1Oc2ccc(CN3CCC(c4ccc(C(=O)O)cc4)CC3)cc2NC1=O (stereo not drawn) [Compound 216, 4-(1-((2-Methyl-3-oxo-3,4-dihydro-2H-benzo[b][1,4]oxazin-6-yl)methyl)piperidin-4-yl)benzoic acid]
1.26 to 10 | CC1Oc2ccc(CN3CCN(c4cccc(C(F)(F)F)c4)CC3)cc2NC1=O (stereo not drawn) [Compound 221, 2-Methyl-6-((4-(3-(trifluoromethyl)phenyl)piperazin-1-yl)methyl)-2H-benzo[b][1,4]oxazin-3(4H)-one]

These molecules were tested against T2, PARP (Homo sapiens, UniProt P09874) (assay: PARP ELISA (ELISA-based colorimetric PARP/Apoptosis Assay kit, Trevigen)). Conditions: pIC50=-log10 IC50, IC50 in mol/L; inhibition of PARP catalytic activity.
T2 construct: purchased Trevigen 4684-096-K HT (kit); 4684-096-01 (PARP enzyme)
T2 sequence (P09874 whole entry): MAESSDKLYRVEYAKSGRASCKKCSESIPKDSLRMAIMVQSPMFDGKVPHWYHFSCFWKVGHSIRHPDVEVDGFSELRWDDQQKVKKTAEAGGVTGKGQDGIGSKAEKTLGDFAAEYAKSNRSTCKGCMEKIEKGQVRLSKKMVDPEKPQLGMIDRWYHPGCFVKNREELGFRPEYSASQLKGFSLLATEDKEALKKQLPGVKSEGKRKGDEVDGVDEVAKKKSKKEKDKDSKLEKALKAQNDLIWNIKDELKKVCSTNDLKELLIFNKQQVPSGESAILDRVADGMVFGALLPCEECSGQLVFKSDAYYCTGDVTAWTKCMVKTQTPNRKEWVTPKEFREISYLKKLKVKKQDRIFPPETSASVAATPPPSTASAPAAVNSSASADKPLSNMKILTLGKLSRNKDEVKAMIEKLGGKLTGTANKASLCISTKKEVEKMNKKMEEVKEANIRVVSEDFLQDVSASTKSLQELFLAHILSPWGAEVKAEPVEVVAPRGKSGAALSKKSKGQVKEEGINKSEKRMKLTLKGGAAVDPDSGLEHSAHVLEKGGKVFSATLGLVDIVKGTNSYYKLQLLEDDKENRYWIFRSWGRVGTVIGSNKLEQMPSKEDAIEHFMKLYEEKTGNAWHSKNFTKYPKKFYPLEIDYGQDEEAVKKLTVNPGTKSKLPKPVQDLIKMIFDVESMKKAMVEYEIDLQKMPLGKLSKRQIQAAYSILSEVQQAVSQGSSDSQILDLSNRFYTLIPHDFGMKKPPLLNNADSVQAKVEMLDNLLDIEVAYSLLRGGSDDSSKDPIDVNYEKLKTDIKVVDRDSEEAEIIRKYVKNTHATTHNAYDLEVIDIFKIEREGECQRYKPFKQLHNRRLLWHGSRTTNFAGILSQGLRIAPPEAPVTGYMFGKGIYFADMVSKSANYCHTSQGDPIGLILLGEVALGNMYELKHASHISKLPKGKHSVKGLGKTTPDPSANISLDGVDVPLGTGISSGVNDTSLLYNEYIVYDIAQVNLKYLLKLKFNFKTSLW
Assay type: biochemical
Method: Inhibition Constant (IC50) from PARP ELISA
After 10 minutes of catalysis the reaction is quenched by solvent aspiration followed by irrigation of the assay wells 4 times with phosphate buffered saline (PBS) containing 0.1% t-Octylphenoxypolyethoxyethanol (Triton® X-100). Mouse Anti-poly ADP ribose (PAR) monoclonal antibody, goat antimouse immunoglobulin G (IgG)-horse radish peroxidase (HRP) conjugate and HRP substrate are added according to the manufacture's specifications to generate a colorimetric signal proportional to PARP catalytic activity.

Compound | IC50 [µM]
CC(=O)Nc1ccc(N2CCN(Cc3ccc4c(c3)NC(=O)C(C)O4)CC2)cc1 (stereo not drawn) [Compound 245, N-(4-(4-((2-Methyl-3-oxo-3,4-dihydro-2H-benzo[b][1,4]oxazin-6-yl)methyl)piperazin-1-yl)phenyl)acetamide] | ≥ 0.126
CCC(=O)Nc1ccc(N2CCN(Cc3ccc4c(c3)NC(=O)C(C)O4)CC2)cc1 (stereo not drawn) [Compound 246, N-(4-(4-((2-Methyl-3-oxo-3,4-dihydro-2H-benzo[b][1,4]oxazin-6-yl)methyl)piperazin-1-yl)phenyl)propionamide] | ≥ 0.126
CC1Oc2ccc(CN3CCN(c4ccc(NC(=O)c5ccccc5)cc4)CC3)cc2NC1=O (stereo not drawn) [Compound 248, N-(4-(4-((2-Methyl-3-oxo-3,4-dihydro-2H-benzo[b][1,4]oxazin-6-yl)methyl)piperazin-1-yl)phenyl)benzamide] | ≥ 0.126

Other lines, results leading:

IC50 [µM] | Compound
≥ 0.126 | CC1Oc2c(Cl)cc(CN3CCC(c4ccc(Cl)cc4)CC3)cc2NC1=O (stereo not drawn) [Compound 165, 8-Chloro-6-((4-(4-chlorophenyl)piperidin-1-yl)methyl)-2-methyl-2H-benzo[b][1,4]oxazin-3(4H)-one]
≥ 0.126 | CC1Oc2ccc(CN3CCN(c4ccc(NC(=O)C5CC5)cc4)CC3)cc2NC1=O (stereo not drawn) [Compound 247, N-(4-(4-((2-methyl-3-oxo-3,4-dihydro-2H-benzo[b][1,4]oxazin-6-yl)methyl)piperazin-1-yl)phenyl)cyclopropanecarboxamide]
